The values that follow come from patent US7026281B1, “Antagonistic analogs of GH-RH inhibiting IGF-I and -II” (The Administrators of the Tulane Educational Fund, priority 1998, dated 2006).

What all share (type): in vivo
Assay [1] relates to U87MG human glioblastoma xenografts. Nature of the assay: U87MG human glioblastoma xenografts in nude mice. The conditions noted are these: 20 μg daily s.c., 28 days. The procedure: Mice were implanted s.c. with U87MG glioblastomas and when tumors reached a volume of approx. 70 mm^3 the mice were randomly divided into 2 experimental groups. One group was treated with Peptide 1 in single daily s.c. injections of 20 μg for 28 days, while the other group served as control.

Assay [2] has as its system MDA-MB-468 human breast cancer xenografts. Kind of assay: MDA-MB-468 human breast cancer xenografts in nude mice. The conditions noted are these: 20 μg daily s.c., 5 weeks. The procedure:
Nude mice bearing MDA-MB-468 hormone-independent human breast cancer xenografts were divided into groups of 10 animals each. The treated groups received single daily s.c. injections of 20 μg of GH-RH antagonists. One group was treated with Peptide 1, a second group was treated with MZ-5-156 for comparison. The control group was injected with the vehicle solvent. The treatment was continued for 5 weeks. Tumors were measured once a week and tumor volume was calculated. The mice were sacrificed at the end of experiment and tumor weights were measured.

In assay [3] the test system is Estrogen independent MXT mouse mammary tumors. Nature of the assay: MXT mouse mammary tumors in BDF mice. The conditions noted are these: for Tumor weights: day 18; for Number of surviving mice: groups of 10. The procedure: Estrogen independent MXT tumors were transplanted sc. to female BDF mice. One day after transplantation, the mice were divided into groups of 10 animals each, and the treatment was started. The mice in groups 1, 2, 3, and 4 received single injections daily of various GH-RH antagonists sc. at 20 μg dose per day for 18 days. In groups 5 and 6, the peptides were administered by Alzet osmotic pumps releasing a daily amount of 20 μg peptide. Tumors were measured regularly, and tumor volume was calculated. The mice were sacrificed on day 18 and tumor weights were measured.

In assay [4] the test system is HT-29 human colon cancers. Kind of assay: HT-29 human colon cancer xenografts in nude mice. The conditions noted are these: 20 μg daily sc., 6 weeks. The procedure:
HT-29 human colon cancers were transplanted sc. into male nude mice. 19 days after transplantation, the mice were divided into groups of 10 animals each, and the treatment was started. The mice received single daily injections of various GH-RH antagonists sc. at 20 μg dose per day for 6 weeks. Tumors were measured regularly, and tumor volume was calculated. The mice were sacrificed at the end of experiment and tumor weights were measured.

Assay [5] deals with PC-3 human prostate cancer xenografts. Kind of assay: PC-3 human prostate cancer xenografts in nude mice. The conditions noted are these: 20 μg daily s.c., 21 days. The procedure:
Male nude mice were implanted s.c. with 3 mm^3 pieces of PC-3 human hormone-independent prostate cancer tissue into both flanks. When tumors reached a volume of approx. 40–50 mm^3 the mice were divided into 3 experimental groups. The first and second groups were treated with peptides Peptide 3 and MZ-5-156, respectively, in single daily s.c. injections of 20 μg for 21 days, while the third group served as control. Tumor volumes were measured at weekly intervals, tumor weights were measured at the end of experiment.

The mark [6] stands for this setting: Alzet osmotic pump, 20 μg daily.
[7] abbreviates: single daily sc. injections, 20 μg per day.

Structures are written as SMILES. Marks after values point to notes of the source that are not given here. Square brackets hold non-standard residues; d marks the D form. Peptide text beside a SMILES is read from it. * marks the point of attachment. Phe(4-Cl) = N[C@@H](Cc1ccc(Cl)cc1)C(=O)O; hArg = N=C(N)NCCCC[C@H](N)C(=O)O; Nle = CCCC[C@H](N)C(=O)O; Abu = CC[C@H](N)C(=O)O; PhAc = O=C(Cc1ccccc1)*

As to `CCCC[C@H](NC(=O)[C@@H](NC(=O)[C@H](CC(=O)O)NC(=O)[C@H](CCC(N)=O)NC(=O)[C@H](CC(C)C)NC(=O)[C@H](CC(C)C)NC(=O)[C@H](CCCCN)NC(=O)[C@H](CCCNC(=N)N)NC(=O)[C@H](C)NC(=O)[C@H](CO)NC(=O)[C@H](CC(C)C)NC(=O)[C@H](CCC(N)=O)NC(=O)[C@H](CC)NC(=O)[C@H](CC(C)C)NC(=O)[C@@H](NC(=O)[C@H](CCCCN)NC(=O)[C@H](CCCNC(=N)N)NC(=O)[C@H](Cc1ccc(O)cc1)NC(=O)[C@H](CCCNC(=N)N)NC(=O)[C@H](CC(N)=O)NC(=O)[C@@H](NC(=O)[C@H](Cc1ccc(Cl)cc1)NC(=O)[C@@H](NC(=O)[C@H](C)NC(=O)[C@H](CC(=O)O)NC(=O)[C@@H](CCCNC(=N)N)NC(=O)[C@H](Cc1ccc(O)cc1)NC(=O)Cc1ccccc1)[C@@H](C)CC)[C@@H](C)O)C(C)C)[C@@H](C)CC)C(=O)N[C@H](CCCNC(=N)N)C(=O)N[C@@H](CCCCNC(=N)N)C(N)=O` [Peptide 1, [PhAc^0, D-Arg^2, Phe(pCl)^6, Arg^9, Abu^15, Nle^27, D-Arg^28, Har^29]hGH-RH(1–29)NH2] (PhAc-Y[dR]DAI[Phe(4-Cl)]TNRYRKVL[Abu]QLSARKLLQDI[Nle][dR][hArg]-NH2), in assay [1], the “Final tumor volume (mm^3)” value is listed as 817 ± 323** mm^3 and the “Tumor weight” value is given as 1.4 ± 0.7 g. For the same molecule, in assay [2] (nude mice), the “Final tumor volume (mm^3)” value was 82.4 ± 29.1** mm^3 and the “Tumor weight” value is 64.0 ± 28.7 mg. For the same molecule, the “Number of regressed tumors” value in assay [2] (groups of 10) was determined as 4. Besides, in assay [3] (setting [6]), the “Tumor volume (mm^3) On day 14” value is listed as 1329 ± 327** mm^3, the “Tumor volume (mm^3) On day 18” value is 3403 ± 584** mm^3, the “Tumor weights” value is reported as 4810 ± 645 mg and the “Number of surviving mice” value is given as 7. In assay [3] (setting [7]), the “Tumor volume (mm^3) On day 14” value amounted to 2924 ± 654 mm^3, the “Tumor volume (mm^3) On day 18” value is listed as 4373 ± 381** mm^3, the “Tumor weights” value was determined as 6964 ± 676 mg and the “Number of surviving mice” value is 6. Also, the “Inhibitory effect on HT-29 human colon cancers (in words)” value in assay [4] is “equally strong inhibitory effect”. For the same molecule, in assay [4] (nude mice), the “Final tumor volume (mm^3)” value was 890 ± 322* mm^3 and the “Tumor weight” value was determined as 1354 ± 480 mg.

On to `CCCC[C@H](NC(=O)[C@@H](NC(=O)[C@H](CC(=O)O)NC(=O)[C@H](CCC(N)=O)NC(=O)[C@H](CC(C)C)NC(=O)[C@H](CC(C)C)NC(=O)[C@H](CCCCN)NC(=O)[C@H](CCCNC(=N)N)NC(=O)[C@H](C)NC(=O)[C@H](CO)NC(=O)[C@H](CC(C)C)NC(=O)[C@H](CCC(N)=O)NC(=O)[C@H](CC)NC(=O)[C@H](CC(C)C)NC(=O)[C@@H](NC(=O)[C@H](CCCCN)NC(=O)[C@H](CCCNC(=N)N)NC(=O)[C@H](Cc1ccc(OC)cc1)NC(=O)[C@H](CCCCNC(=N)N)NC(=O)[C@H](CC(N)=O)NC(=O)[C@@H](NC(=O)[C@H](Cc1ccc(Cl)cc1)NC(=O)[C@@H](NC(=O)[C@H](C)NC(=O)[C@H](CC(=O)O)NC(=O)[C@@H](CCCNC(=N)N)NC(=O)[C@H](Cc1ccc(O)cc1)NC(=O)Cc1ccccc1)[C@@H](C)CC)[C@@H](C)O)C(C)C)[C@@H](C)CC)C(=O)N[C@H](CCCNC(=N)N)C(=O)N[C@@H](CCCCNC(=N)N)C(N)=O` [Peptide 3, [PhAc^0, D-Arg^2, Phe(pCl)^6, Har^9, Tyr(Me)^10, Abu^15, Nle^27, D-Arg^28, Har^29]hGH-RH(1–29)NH2] (PhAc-Y[dR]DAI[Phe(4-Cl)]TN[hArg]Y(Me)RKVL[Abu]QLSARKLLQDI[Nle][dR][hArg]-NH2), for which, in assay [5], the “Inhibition in tumor volume” value is recorded as 65% and the “Inhibition in tumor weight” value was 62%. Further, in assay [5] (nude mice), the “Final tumor volume (mm^3)” value is given as 107.9 ± 12.5* mm^3 and the “Tumor weight” value worked out at 73.7 ± 11.9 mg. Besides, in assay [3] (setting [6]), the “Tumor volume (mm^3) On day 14” value is recorded as 1688 ± 220** mm^3, the “Tumor volume (mm^3) On day 18” value is given as 4272 ± 295** mm^3, the “Tumor weights” value amounted to 5939 ± 453 mg and the “Number of surviving mice” value is reported as 8. Further, in assay [3] (setting [7]), the “Tumor volume (mm^3) On day 14” value is given as 1902 ± 349** mm^3, the “Tumor volume (mm^3) On day 18” value was 3465 ± 607** mm^3, the “Tumor weights” value was 5266 ± 906 mg and the “Number of surviving mice” value stood at 8.
